Assay results from patent US20090163490A1, “Pyrrolopyrimidine Derivatives Used As HSP90 Inhibitors” (VERNALIS (R&D) LTD., priority 2006, published 2009).

Molecular target: T1, human full-length HSP90 (Homo sapiens, UniProt P08238)
T1 construct: E. coli expressed human full-length HSP90 protein, purified >95%; made in house; host or cells: E. coli
Assay: Fluorescence polarization (FP) binding assay
Settings: competitive displacement of fluorescein-labelled probe from human full-length HSP90; activity range; read-out: activity in the fluorescence polarization assay
Excerpt: Fluorescence Polarization Assay
Fluorescence polarization {also known as fluorescence anisotropy} measures the rotation of a fluorescing species in solution, where the larger molecule the more polarized the fluorescence emission. When the fluorophore is excited with polarized light, the emitted light is also polarized. The molecular size is proportional to the polarization of the fluorescence emission.
The fluoroscein-labelled probe—
binds to HSP90 {full-length human, full-length yeast or N-terminal domain HSP90} and the anisotropy {rotation of the probe:protein complex} is measured.
Test compound is added to the assay plate, left to equilibrate and the anisotropy measured again. Any change in anisotropy is due to competitive binding of compound to HSP90, thereby releasing probe.
Stored at room temperature. • 3) BSA (bovine serum albumen) 10 mg/ml (New England Biolabs # B9001S) • 4) 20 mM probe in 100% DMSO stock concentration. Stored in the dark at RT. Working concentration is 200 nM diluted in AR water and stored at 4° C.
• 1) Add 100 μl×buffer to wells 1A and 12A(=FP BLNK) • 2) Prepare assay mix—all reagents are kept on ice with a lid on the bucket as the probe is light-sensitive.
• 3) Aliquot 100 μl assay mix to all other wells • 4) Seal plate and leave in dark at room temp for 20 minutes to equilibrate
This gives 2.5 mM {50×} stock cpd−assuming cpds 20 mM. • 4) Repeat for wells A2 to A10. Control in columns 11 and 12. • 5) Transfer 5 μl from row A to row B—not column 12. Mix well. • 6) Transfer 5 μl from row B to row C. […] Add 2 μl of 100 mM standard cpd to wells B12-H12 {is positive control} • 13) The Z′ factor is calculated from zero controls and positive wells.

T1 sequence (P08238 whole entry): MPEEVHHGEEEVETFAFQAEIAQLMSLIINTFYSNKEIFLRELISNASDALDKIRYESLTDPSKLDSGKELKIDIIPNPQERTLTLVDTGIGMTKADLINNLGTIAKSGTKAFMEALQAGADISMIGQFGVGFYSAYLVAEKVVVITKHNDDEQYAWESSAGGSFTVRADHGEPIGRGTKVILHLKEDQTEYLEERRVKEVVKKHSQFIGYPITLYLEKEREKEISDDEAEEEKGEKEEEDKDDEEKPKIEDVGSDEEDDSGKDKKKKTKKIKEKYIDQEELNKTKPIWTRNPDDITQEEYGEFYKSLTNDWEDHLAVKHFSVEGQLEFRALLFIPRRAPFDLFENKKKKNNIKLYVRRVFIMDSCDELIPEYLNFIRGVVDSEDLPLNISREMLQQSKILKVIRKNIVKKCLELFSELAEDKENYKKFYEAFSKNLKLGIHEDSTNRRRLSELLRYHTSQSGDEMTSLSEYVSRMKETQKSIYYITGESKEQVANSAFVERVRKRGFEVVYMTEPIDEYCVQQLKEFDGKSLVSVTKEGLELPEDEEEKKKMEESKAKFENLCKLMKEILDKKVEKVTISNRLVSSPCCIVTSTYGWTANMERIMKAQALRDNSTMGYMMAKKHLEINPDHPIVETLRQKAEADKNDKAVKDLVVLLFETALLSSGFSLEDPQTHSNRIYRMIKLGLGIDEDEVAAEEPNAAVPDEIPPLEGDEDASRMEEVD

SMILES | IC50
CSc1nc(-c2ccc(C)cc2C)c2c(C#N)c[nH]c2n1 [Example 1, 4-(2,4-dimethyl-phenyl)-2-methylsulfanyl-7H-pyrrolo[2,3-d]pyrimidine-5-carbonitrile] | < 500 nM
CSc1nc(-c2ccccc2)c2c(C#N)c[nH]c2n1 [Example 2, 2-methylsulfanyl-4-phenyl-7H-pyrrolo[2,3-d]pyrimidine-5-carbonitrile] | < 500 nM
CSc1nc(-c2ccc(C#N)cc2)c2c(C#N)c[nH]c2n1 [Example 3, 4-(4-cyano-phenyl)-2-methylsulfanyl-7H-pyrrolo[2,3-d]pyrimidine-5-carbonitrile] | < 500 nM
CSc1nc(-c2ccc(F)cc2C)c2c(C#N)c[nH]c2n1 [Example 4, 4-(2-methyl-4-fluoro-phenyl)-2-methylsulfanyl-7H-pyrrolo[2,3-d]pyrimidine-5-carbonitrile] | < 500 nM
CSc1nc(-c2ccc(C)cc2C)c2c(Br)c[nH]c2n1 [Example 5, 5-Bromo-4-(2,4-dimethyl-phenyl)-2-methylsulfanyl-7H-pyrrolo[2,3-d]pyrimidine] | 500 to 10000 nM
CSc1nc(-c2ccc(C)cc2C)c2c(C)c[nH]c2n1 [Example 6, 4-(2,4-dimethyl-phenyl)-5-methyl-2-methylsulfanyl-7H-pyrrolo[2,3-d]pyrimidine] | 500 to 10000 nM
CCN(CC)CCOc1cccc(-c2nc(SC)nc3[nH]cc(C#N)c23)c1 [Example 7] | 500 to 10000 nM
Cc1ccc(-c2nc(Cl)nc3[nH]cc(C#N)c23)c(C)c1 [Example 8, 2-Chloro-4-(2,4-dimethyl-phenyl)-7H-pyrrolo[2,3-d]pyrimidine-5-carbonitrile] | < 500 nM
Cc1ccc(-c2ncnc3[nH]cc(C#N)c23)c(C)c1 [Example 9, 4-(2,4-dimethyl-phenyl)-7H-pyrrolo[2,3-d]pyrimidine-5-carbonitrile] | 500 to 10000 nM
CSc1nc(-c2ccc(C)cc2C)c2c(C(F)(F)F)c[nH]c2n1 [Example 10, 4-(2,4-Dimethyl-phenyl)-2-methylsulfanyl-5-trifluoromethyl-7H-pyrrolo[2,3-d]pyrimidine] | 500 to 10000 nM
CSc1nc(-c2ccc(C)cc2C)c2c(C3CC3)c[nH]c2n1 [Example 11, 5-Cyclopropyl-4-(2,4-dimethyl-phenyl)-2-methylsulfanyl-7H-pyrrolo[2,3-d]pyrimidine] | > 10000 nM
COc1nc(-c2ccc(F)cc2C)c2c(C#N)c[nH]c2n1 [Example 12, 4-(4-Fluoro-2-methyl-phenyl)-2-methoxy-7H-pyrrolo[2,3-d]pyrimidine-5-carbonitrile] | 500 to 10000 nM
Cc1cc(F)ccc1-c1nc(OCCN2CCCC2)nc2[nH]cc(C#N)c12 [Example 13, 4-(4-Fluoro-2-methyl-phenyl)-2-(2-pyrrolidin-1-yl-ethoxy)-7H-pyrrolo[2,3-d]pyrimidine-5-carbonitrile] | > 10000 nM
Cc1cc(F)ccc1-c1nc(OCCN2CCOCC2)nc2[nH]cc(C#N)c12 [Example 14, 4-(4-Fluoro-2-methyl-phenyl)-2-(2-morpholin-4-yl-ethoxy)-7H-pyrrolo[2,3-d]pyrimidine-5-carbonitrile] | 500 to 10000 nM
Cc1cc(F)ccc1-c1nc(OCCN2CCCC2=O)nc2[nH]cc(C#N)c12 [Example 15, 4-(4-Fluoro-2-methyl-phenyl)-2-[2-(2-oxo-pyrrolidin-1-yl)-ethoxy]-7H-pyrrolo[2,3-d]pyrimidine-5-carbonitrile] | 500 to 10000 nM
Cc1cc(F)ccc1-c1nc(N2CCN(C)CC2)nc2[nH]cc(C#N)c12 [Example 16, 4-(4-Fluoro-2-methyl-phenyl)-2-(4-methyl-piperazin-1-yl)-7H-pyrrolo[2,3-d]pyrimidine-5-carbonitrile] | > 10000 nM
CNc1nc(-c2ccc(F)cc2C)c2c(C#N)c[nH]c2n1 [Example 17, 4-(4-Fluoro-2-methyl-phenyl)-2-methylamino-7H-pyrrolo[2,3-d]pyrimidine-5-carbonitrile] | 500 to 10000 nM
CCc1nc(-c2ccc(F)cc2C)c2c(C#N)c[nH]c2n1 [Example 18, 2-Ethyl-4-(4-fluoro-2-methyl-phenyl)-7H-pyrrolo[2,3-d]pyrimidine-5-carbonitrile] | 500 to 10000 nM
Cc1cc(F)ccc1-c1nc(SCCO)nc2[nH]cc(C#N)c12 [Example 20, 4-(4-Fluoro-2-methyl-phenyl)-2-(2-hydroxy-ethylsulfanyl)-7H-pyrrolo[2,3-d]pyrimidine-5-carbonitrile] | < 500 nM

SMILES | IC50
Cc1cc(F)ccc1-c1nc(SCCN2CCOCC2)nc2[nH]cc(C#N)c12 [Example 21, 4-(4-Fluoro-2-methyl-phenyl)-2-(2-morpholin-4-yl-ethylsulfanyl)-7H-pyrrolo[2,3-d]pyrimidine-5-carbonitrile] | < 500 nM
COc1cc(-c2nc(SC)nc3[nH]cc(C#N)c23)c(Cl)cc1Cl [Example 22, 4-(2,4-Dichloro-5-methoxy-phenyl)-2-methylsulfanyl-7H-pyrrolo[2,3-d]pyrimidine-5-carbonitrile] | < 500 nM
CCN(CC)CCSc1nc(-c2cc(OC)c(Cl)cc2Cl)c2c(C#N)c[nH]c2n1 [Example 23, 4-(2,4-Dichloro-5-methoxy-phenyl)-2-(2-diethylamino-ethylsulfanyl)-7H-pyrrolo[2,3-d]pyrimidine-5-carbonitrile] | < 500 nM
COc1cc(-c2nc(OCCN3CCCC3=O)nc3[nH]cc(C#N)c23)c(Cl)cc1Cl [Example 25, 4-(2,4-Dichloro-5-methoxy-phenyl)-2-[2-(2-oxo-pyrrolidin-1-yl)-ethoxy]-7H-pyrrolo[2,3-d]pyrimidine-5-carbonitrile] | < 500 nM
CSc1nc(-c2cc(OCCN3CCCC3)c(Cl)cc2Cl)c2c(C#N)c[nH]c2n1 [Example 26, 4-[2,4-Dichloro-5-(2-pyrrolidin-1-yl-ethoxy)-phenyl]-2-methylsulfanyl-7H-pyrrolo[2,3-d]pyrimidine-5-carbonitrile] | < 500 nM
CCN(CC)CCOc1cc(-c2nc(SC)nc3[nH]cc(C#N)c23)c(Cl)cc1Cl [Example 27, 4-[2,4-Dichloro-5-(2-diethylamino-ethoxy)-phenyl]-2-methylsulfanyl-7H-pyrrolo[2,3-d]pyrimidine-5-carbonitrile] | < 500 nM
COc1cc(Cl)c(-c2nc(SC)nc3[nH]cc(C#N)c23)cc1OC [Example 29, 4-(2-Chloro-4,5-dimethoxy-phenyl)-2-methylsulfanyl-7H-pyrrolo[2,3-d]pyrimidine-5-carbonitrile] | < 500 nM
CCN(CC)CCSc1nc(-c2cc(OC)c(OC)cc2Cl)c2c(C#N)c[nH]c2n1 [Example 30, 4-(2-Chloro-4,5-dimethoxy-phenyl)-2-(2-diethylamino-ethylsulfanyl)-7H-pyrrolo[2,3-d]pyrimidine-5-carbonitrile] | < 500 nM
COc1ccc(-c2nc(OCCN3CCC(F)(F)CC3)nc3[nH]cc(C#N)c23)cc1OC [Example 32, 4-(4,5-Dimethoxy-phenyl)-2-[2-(4,4-difluoro-piperidin-1-yl)-ethoxy]-7H-pyrrolo[2,3-d]pyrimidine-5-carbonitrile] | < 500 nM
COc1ccc(-c2nc(OCCN3CCC(F)(F)C3)nc3[nH]cc(C#N)c23)cc1OC [Example 33, 2-[2-(3,3-Difluoro-pyrrolidin-1-yl)-ethoxy]-4-(3,4-dimethoxy-phenyl)-7H-pyrrolo[2,3-d]pyrimidine-5-carbonitrile] | 500 to 10000 nM
COc1ccc(-c2nc(OCCN3CC[C@H](F)C3)nc3[nH]cc(C#N)c23)cc1OC [Example 34, 4-(3,4-Dimethoxy-phenyl)-2-[2-(3(S)-fluoro-pyrrolidin-1-yl)-ethoxy]-7H-pyrrolo[2,3-d]pyrimidine-5-carbonitrile] | 500 to 10000 nM
COc1cc(Cl)c(-c2nc(OCCN3CC[C@H](F)C3)nc3[nH]cc(C#N)c23)cc1OC [Example 35] | < 500 nM
COc1cc(Cl)c(-c2nc(OCCN3CCC(F)(F)C3)nc3[nH]cc(C#N)c23)cc1OC [Example 36] | < 500 nM
CCN(CC)CCSc1nc(-c2cc(OC)c(C#N)cc2Cl)c2c(C#N)c[nH]c2n1 [Example 37, 4-(2-Chloro-4-cyano-5-methoxy-phenyl)-2-(2-diethylamino-ethylsulfanyl)-7H-pyrrolo[2,3-d]pyrimidine-5-carbonitrile] | < 500 nM
CNC(=O)CSc1nc(-c2ccc(F)cc2C)c2c(C#N)c[nH]c2n1 [Example 38, 2-[5-Cyano-4-(4-fluoro-2-methyl-phenyl)-7H-pyrrolo[2,3-d]pyrimidin-2-ylsulfanyl]-N-methyl-acetamide] | < 500 nM
Cc1ccc(-c2ncnc3[nH]cc(C(N)=O)c23)c(C)c1 [Example 39, 4-(2,4-Dimethyl-phenyl)-7H-pyrrolo[2,3-d]pyrimidine-5-carboxylic Acid Amide] | > 10000 nM
CSc1nc(-c2ccc(F)cc2C)c2c(C(N)=O)c[nH]c2n1 [Example 40, 4-(4-Fluoro-2-methyl-phenyl)-2-methylsulfanyl-7H-pyrrolo[2,3-d]pyrimidine-5-carboxylic Acid Amide] | > 10000 nM
CSc1nc(-c2ccc(Cl)cc2Cl)c2c(C#N)c[nH]c2n1 [Example 41, 4-(Dichloro-phenyl)-2-methylsulfanyl-7H-pyrrolo[2,3-d]pyrimidine-5-carbonitrile] | < 500 nM
